Columns and labels:
[1] = biological target: TBPS binding, rat brain cortical membranes in the presence of 5 μM GABA; test: 35S-TBPS displacement (steroid inhibition of TBPS binding); conditions: read-out: 35S-TBPS Radioligand Displacement (IC50)
Experimental: TBPS binding assays using rat brain cortical membranes in the presence of 5 μM GABA has been described (Gee et al, J. Pharmacol. Exp. Then 1987, 241, 346-353; Hawkinson et al, Mol. Pharmacol. 1994, 46, 977-985). Briefly, cortices are rapidly removed following decapitation of carbon dioxide-anesthetized Sprague-Dawley rats (200-250 g). The cortices are homogenized in 10 volumes of ice-cold 0.32 M sucrose using a glass/teflon homogenizer and centrifuged at 1500×g for 10 min at 4° C. The resultant supernatants are centrifuged at 10,000×g for 20 min at 4° C. to obtain the P2 pellets. The P2 pellets are resuspended in 200 mM NaCl/50 mM Na—K phosphate pH 7.4 buffer and centrifuged at 10,000×g for 10 min at 4° C. This washing procedure is repeated twice and the pellets are resuspended in 10 volumes of buffer. Aliquots (100 μL) of the membrane suspensions are incubated with 3 nM [^35S]-TBPS and 5 μL, aliquots of test drug dissolved in dimethyl sulfoxide (DMSO) (final 0.5%) in the presence of 5 μM GABA. The incubation is brought to a final volume of 1.0 mL with buffer. Nonspecific binding is determined in the presence of 2 μM unlabeled TBPS and ranged from 15 to 25%. Following a 90 min incubation at room temp, the assays are terminated by filtration through glass fiber filters (Schleicher and Schuell No. 32) using a cell harvester (Braudel) and rinsed three times with ice-cold buffer. Filter bound radioactivity is measured by liquid scintillation spectrometry. Non-linear curve fitting of the overall data for each drug averaged for each concentration is done using Prism (GraphPad). […] The concentration of test compound producing 50% inhibition (IC50) of specific binding and the maximal extent of inhibition (Imax) are determined for the individual experiments with the same model used for the overall data and then the means±SEMs of the individual experiments are calculated.
Various compounds are or can be screened to determine their potential as modulators of ^35S-TBPS binding in vitro. These assays are or can be performed in accordance with the above discussed procedures.

GABA receptor α1β2γ2 = biological target: T1, GABA receptor α1β2γ2 (Homo sapiens, UniProt P14867+P47870); test: Patch clamp electrophysiology, Qpatch in Ltk cells; format: cell-based; conditions: 10 μM test article, GABA EC20 = 2 μM, read-out: GABA (α1β2γ2) Qpatch in Ltk, % efficacy at 10 μM
T1 construct: expressed in transfected cells; host or cells: LTK cells, stably transfected
T1 sequence (P14867 28-456): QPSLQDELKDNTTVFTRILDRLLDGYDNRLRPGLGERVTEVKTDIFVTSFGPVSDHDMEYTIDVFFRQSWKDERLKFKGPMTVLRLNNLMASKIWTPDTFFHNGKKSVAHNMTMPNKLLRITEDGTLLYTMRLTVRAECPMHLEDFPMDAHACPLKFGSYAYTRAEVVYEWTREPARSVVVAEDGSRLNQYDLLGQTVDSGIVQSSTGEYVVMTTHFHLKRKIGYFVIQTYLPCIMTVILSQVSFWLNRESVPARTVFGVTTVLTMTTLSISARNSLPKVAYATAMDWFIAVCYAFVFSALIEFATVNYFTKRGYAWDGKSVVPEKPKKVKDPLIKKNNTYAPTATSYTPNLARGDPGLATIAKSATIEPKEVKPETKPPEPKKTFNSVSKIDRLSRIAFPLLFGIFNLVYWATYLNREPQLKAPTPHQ
T1 sequence (P47870 25-512 limits assumed): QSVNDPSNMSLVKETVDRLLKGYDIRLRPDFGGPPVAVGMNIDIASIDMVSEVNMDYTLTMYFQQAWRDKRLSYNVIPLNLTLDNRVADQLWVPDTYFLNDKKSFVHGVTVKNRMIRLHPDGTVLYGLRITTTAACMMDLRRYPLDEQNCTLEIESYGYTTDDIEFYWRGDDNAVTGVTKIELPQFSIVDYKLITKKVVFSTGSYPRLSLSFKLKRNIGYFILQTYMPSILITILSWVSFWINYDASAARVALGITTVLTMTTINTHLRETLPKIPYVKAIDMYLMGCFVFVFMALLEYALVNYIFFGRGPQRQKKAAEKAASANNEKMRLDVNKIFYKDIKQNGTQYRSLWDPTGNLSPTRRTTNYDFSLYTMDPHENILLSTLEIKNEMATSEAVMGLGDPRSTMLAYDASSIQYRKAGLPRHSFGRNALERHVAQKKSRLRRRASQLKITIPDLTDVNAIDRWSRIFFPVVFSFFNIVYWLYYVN
T1 sequence (P18507 40-475 partner): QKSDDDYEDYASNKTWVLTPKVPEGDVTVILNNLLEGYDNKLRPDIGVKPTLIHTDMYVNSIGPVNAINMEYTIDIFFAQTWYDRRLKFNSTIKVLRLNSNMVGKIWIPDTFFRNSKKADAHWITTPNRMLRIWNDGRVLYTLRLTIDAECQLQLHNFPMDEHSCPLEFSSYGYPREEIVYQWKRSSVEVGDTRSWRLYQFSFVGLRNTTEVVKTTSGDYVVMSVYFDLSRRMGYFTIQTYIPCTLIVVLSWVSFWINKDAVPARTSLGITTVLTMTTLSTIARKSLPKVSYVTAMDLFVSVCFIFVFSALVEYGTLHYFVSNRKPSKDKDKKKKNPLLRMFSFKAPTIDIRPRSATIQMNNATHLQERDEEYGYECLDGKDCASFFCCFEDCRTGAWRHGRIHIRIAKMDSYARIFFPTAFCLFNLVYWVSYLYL

male Sprague Dawley rats = test: Loss of righting reflex in rats; format: in vivo, rat; conditions: intravenous bolus 5 mg/kg
Experimental: The plasma pharmacokinetics and a qualitative assessment of sedation were obtained in male Sprague Dawley rats according to the following procedure. Rats were dosed by intravenous bolus dose (60 seconds) via the foot dorsal vein at 5 mg/kg in an appropriate vehicle. In order to assess sedation, rats were gently restrained by hand to a lateral position for dose administration. […] If the animal was unable to return to an upright position, the time was recorded as the onset of loss of righting reflex (LRR). […] Sluggish or incomplete righting twice consecutively within a 30 second interval qualifies as a loss of righting reflex. After onset of LRR, animals were assessed every 5 minutes in the same manner. Recovery of righting reflex is defined as the ability of a rat to right itself completely within 20 seconds of being placed in dorsal recumbency. The duration of LRR is defined as the time interval between LRR and the return of righting reflex.

GABA receptor α4β3δ = biological target: T2, GABA receptor α4β3δ (Homo sapiens, UniProt P28472+P48169); test: Patch clamp electrophysiology, manual patch in CHO cells; format: cell-based; conditions: 10 μM test article, GABA EC20 = 2 μM, read-out: GABA (α4β3δ) Manual patch in CHO, % efficacy at 10 μM
T2 construct: expressed in transfected cells; host or cells: CHO cells, transiently transfected
T2 sequence (P48169 36-554): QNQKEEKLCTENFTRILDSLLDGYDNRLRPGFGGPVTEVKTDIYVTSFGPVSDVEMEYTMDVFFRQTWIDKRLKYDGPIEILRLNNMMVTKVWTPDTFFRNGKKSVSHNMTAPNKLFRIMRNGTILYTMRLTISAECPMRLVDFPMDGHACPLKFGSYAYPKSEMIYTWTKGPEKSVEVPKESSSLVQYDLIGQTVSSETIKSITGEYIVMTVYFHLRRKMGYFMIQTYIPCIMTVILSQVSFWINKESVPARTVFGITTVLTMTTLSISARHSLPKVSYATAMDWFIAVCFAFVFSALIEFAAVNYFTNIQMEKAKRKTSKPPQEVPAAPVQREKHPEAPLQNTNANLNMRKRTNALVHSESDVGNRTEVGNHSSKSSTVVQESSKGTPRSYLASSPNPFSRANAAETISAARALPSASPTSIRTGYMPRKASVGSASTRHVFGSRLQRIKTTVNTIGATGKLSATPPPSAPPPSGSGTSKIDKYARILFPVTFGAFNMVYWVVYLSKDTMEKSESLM
T2 sequence (P28472 26-473): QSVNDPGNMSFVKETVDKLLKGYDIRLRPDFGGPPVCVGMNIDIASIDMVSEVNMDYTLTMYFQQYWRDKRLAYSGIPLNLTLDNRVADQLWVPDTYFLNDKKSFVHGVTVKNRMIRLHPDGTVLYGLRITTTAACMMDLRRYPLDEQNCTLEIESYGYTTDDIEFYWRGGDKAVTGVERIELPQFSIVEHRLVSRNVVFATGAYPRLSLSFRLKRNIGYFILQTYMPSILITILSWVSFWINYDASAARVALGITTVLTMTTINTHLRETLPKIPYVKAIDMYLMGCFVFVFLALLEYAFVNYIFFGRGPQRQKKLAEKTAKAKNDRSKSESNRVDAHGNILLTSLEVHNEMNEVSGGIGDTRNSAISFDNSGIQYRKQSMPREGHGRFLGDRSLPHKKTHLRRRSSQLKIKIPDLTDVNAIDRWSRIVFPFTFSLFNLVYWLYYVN
T2 sequence (O14764 25-452 partner): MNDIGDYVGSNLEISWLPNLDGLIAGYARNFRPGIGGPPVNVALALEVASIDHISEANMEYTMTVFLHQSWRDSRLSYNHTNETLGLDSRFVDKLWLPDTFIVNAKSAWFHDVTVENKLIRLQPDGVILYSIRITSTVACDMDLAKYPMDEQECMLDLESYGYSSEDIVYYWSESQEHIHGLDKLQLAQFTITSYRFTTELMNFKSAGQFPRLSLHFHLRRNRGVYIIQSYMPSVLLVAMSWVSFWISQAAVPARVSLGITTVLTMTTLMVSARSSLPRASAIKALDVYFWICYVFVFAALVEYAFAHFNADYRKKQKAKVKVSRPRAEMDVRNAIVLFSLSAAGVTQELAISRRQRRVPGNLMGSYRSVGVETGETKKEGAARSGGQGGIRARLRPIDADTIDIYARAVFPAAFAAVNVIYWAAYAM

Compound | IC50 [1] [nM] | Emax at 10 µM (GABA receptor α1β2γ2) [%] | Duration of LRR (min) (male Sprague Dawley rats) | Emax at 10 µM (GABA receptor α4β3δ) [%]
C[C@H]1C[C@@]2(C)[C@@H](CC[C@@H]3[C@@H]2[C@@H](O)C[C@]2(C)[C@@H](C#N)CC[C@@H]32)C[C@@H]1O [Compound 54] | 100 to 500 |  |  | 
CO[C@H]1C[C@]2(C)[C@@H](C#N)CC[C@H]2[C@@H]2CC[C@H]3C[C@H](O)[C@@H](C)C[C@]3(C)[C@H]21 [Compound 51] | 10 to 50 | > 500 | C (“C” indicates the duration of LRR to be >20 minutes) | 
CC[C@H]1C[C@@]2(C)[C@@H](CC[C@@H]3[C@@H]2CC[C@]2(C)[C@@H](C#N)CC[C@@H]32)C[C@@H]1O [Compound 41] | < 10 | > 500 | C (“C” indicates the duration of LRR to be >20 minutes) | 
C[C@]12C[C@H](OC3CC3)[C@@H](O)C[C@@H]1CC[C@@H]1[C@@H]2CC[C@]2(C)[C@@H](C#N)CC[C@@H]12 [Compound 42] | > 500 |  |  | 
CO[C@H]1C[C@]2(C)[C@@H](C#N)CC[C@H]2[C@@H]2CC[C@H]3C[C@H](O)[C@H](C)C[C@]3(C)[C@H]21 [Compound 45] | 50 to 100 | > 500 | C (“C” indicates the duration of LRR to be >20 minutes) | 
C[C@H]1[C@H](O)CC[C@]2(C)[C@@H]3[C@@H](CC[C@@H]12)[C@@H]1CC[C@H](C#N)[C@@]1(C)C[C@@H]3O [Compound 56] | > 500 |  |  | 
CC(C)O[C@H]1C[C@@]2(C)[C@@H](CC[C@H]3[C@@H]4CC[C@H](C#N)[C@@]4(C)CC(=O)[C@@H]32)C[C@@H]1O [Compound 23] | 100 to 500 |  | B (“B” indicates the duration of LRR to be 10-20 minutes) | 
CO[C@@H]1C[C@]2(C)[C@@H](C#N)CC[C@H]2[C@@H]2CC[C@H]3C[C@H](O)CC[C@]3(C)C21 (stereo partly shown) [Compound 34] | 100 to 500 |  |  | 
CCO[C@H]1C[C@@]2(C)[C@@H](CC[C@@H]3[C@@H]2[C@@H](O)C[C@]2(C)[C@@H](C#N)CC[C@@H]32)C[C@@H]1O [Compound 10] | > 500 | > 500 | A (“A” indicates the duration of LRR to be <10 min) | 
CO[C@H]1C[C@]2(C)[C@@H](C#N)CC[C@H]2[C@@H]2CC[C@H]3C[C@H](O)[C@@H](OC)C[C@]3(C)[C@H]21 [Compound 12] | 100 to 500 | > 500 | A (“A” indicates the duration of LRR to be <10 min) | 
COCCO[C@H]1C[C@@]2(C)[C@@H](CC[C@@H]3[C@@H]2[C@@H](O)C[C@]2(C)[C@@H](C#N)CC[C@@H]32)C[C@@H]1O [Compound 24] | > 500 |  |  | 
CC[C@H]1[C@H](O)CC[C@]2(C)[C@H]3CC[C@]4(C)[C@@H](C#N)CC[C@H]4[C@@H]3CC[C@@H]12 [Compound 50] | > 500 |  |  | 
C[C@H]1[C@H](O)CC[C@@]2(C)[C@H]1CC[C@@H]1[C@@H]2CC[C@]2(C)[C@@H](C#N)CC[C@@H]12 [Compound 49] | 100 to 500 |  |  | 
CCCO[C@H]1C[C@@]2(C)[C@@H](CC[C@H]3[C@@H]4CC[C@H](C#N)[C@@]4(C)CC(=O)[C@@H]32)C[C@@H]1O [Compound 21] | 10 to 50 | > 500 | C (“C” indicates the duration of LRR to be >20 minutes) | 
C[C@H]1[C@H](O)CC[C@@]2(C)[C@H]1CC[C@H]1[C@@H]3CC[C@H](C#N)[C@@]3(C)CC(=O)[C@@H]12 [Compound 55] | > 500 |  |  | 
C[C@]12CC[C@@H](O)C[C@H]1CC[C@@H]1[C@@H]2[C@@H](O)C[C@]2(C)[C@H](C#N)CC[C@@H]12 [Compound 15] | > 500 |  |  | 
C[C@]12C[C@H](OC(F)(F)F)[C@@H](O)C[C@@H]1CC[C@@H]1[C@@H]2CC[C@]2(C)[C@@H](C#N)CC[C@@H]12 [Compound 43] | > 500 |  |  | 
C[C@H]1C[C@@]2(C)[C@@H](CC[C@@H]3[C@@H]2CC[C@]2(C)[C@@H](C#N)CC[C@@H]32)C[C@@H]1O [Compound 40] | 10 to 50 | > 500 | B (“B” indicates the duration of LRR to be 10-20 minutes) | 
CO[C@H]1C[C@]2(C)[C@H](C#N)CC[C@H]2[C@@H]2CC[C@H]3C[C@H](O)[C@@H](OC)C[C@]3(C)[C@H]21 [Compound 13] | > 500 |  |  | 

Compound | IC50 [1] [nM] | Emax at 10 µM (GABA receptor α1β2γ2) [%] | Duration of LRR (min) (male Sprague Dawley rats) | Emax at 10 µM (GABA receptor α4β3δ) [%]
CCCO[C@H]1C[C@@]2(C)[C@@H](CC[C@@H]3[C@@H]2CC[C@]2(C)[C@H](C#N)CC[C@@H]32)C[C@@H]1O [Compound 18] | > 500 |  |  | 
CC(C)O[C@H]1C[C@@]2(C)[C@@H](CC[C@H]3[C@@H]4CC[C@H](C#N)[C@@]4(C)CC(=O)[C@@H]32)C[C@@H]1O [Compound 22] | 50 to 100 | 100 to 500 |  | 
CO[C@H]1C[C@]2(C)[C@@H](C#N)CC[C@H]2[C@@H]2CC[C@@H]3C[C@H](O)CC[C@]3(C)[C@H]21 [Compound 28] | 100 to 500 | > 500 | A (“A” indicates the duration of LRR to be <10 min) | 
C[C@]12C[C@H](OC3CC3)[C@@H](O)C[C@@H]1CC[C@@H]1[C@@H]2CC[C@]2(C)[C@H](C#N)CC[C@@H]12 [Compound 57] | > 500 |  |  | 
C[C@]12CC[C@@H](O)C[C@H]1CC[C@@H]1[C@@H]2[C@@H](O)C[C@]2(C)[C@@H](C#N)CC[C@@H]12 [Compound 9] | > 500 | 100 to 500 |  | 10 to 100
CCO[C@H]1C[C@@]2(C)[C@@H](CC[C@@H]3[C@@H]2[C@@H](O)C[C@]2(C)[C@H](C#N)CC[C@@H]32)C[C@@H]1O [Compound 11] | > 500 |  |  | 
C[C@]12CC[C@@H](O)C[C@@H]1CC[C@@H]1[C@@H]2[C@@H](O)C[C@]2(C)[C@@H](C#N)CC[C@@H]12 [Compound 27] | > 500 |  |  | 
C[C@]12C[C@@H](O)C3[C@@H](CC[C@H]4C[C@H](O)CC[C@]34C)[C@@H]1CC[C@@H]2C#N (stereo partly shown) [Compound 30] | > 500 |  |  | 
C[C@H]1C[C@@]2(C)[C@@H](CC[C@H]3[C@@H]4CC[C@H](C#N)[C@@]4(C)CC(=O)[C@@H]32)C[C@@H]1O [Compound 53] | 100 to 500 |  |  | 
C[C@]12C[C@H](OCCO)[C@@H](O)C[C@@H]1CC[C@@H]1[C@@H]2CC[C@]2(C)[C@@H](C#N)CC[C@@H]12 [Compound 7] | > 500 |  |  | 
C[C@@H]1C[C@@]2(C)[C@@H](CC[C@@H]3[C@@H]2CC[C@]2(C)[C@@H](C#N)CC[C@@H]32)C[C@@H]1O [Compound 33] | 10 to 50 | 100 to 500 | A (“A” indicates the duration of LRR to be <10 min) | 
CC(C)CO[C@H]1C[C@]2(C)C3CC[C@]4(C)[C@@H](C#N)CC[C@H]4[C@@H]3CC[C@H]2C[C@@H]1O (stereo partly shown) [Compound 29] | < 10 | > 500 | C (“C” indicates the duration of LRR to be >20 minutes) | 
CCO[C@H]1C[C@@]2(C)[C@@H](CC[C@H]3[C@@H]4CC[C@@H](C#N)[C@@]4(C)CC(=O)[C@@H]32)C[C@@H]1O [Compound 20] | > 500 |  |  | 
CO[C@H]1C[C@]2(C)[C@@H](C#N)CC[C@H]2[C@@H]2CC[C@H]3[C@@H](C)[C@H](O)CC[C@]3(C)[C@H]21 [Compound 52] | > 500 |  |  | 
CO[C@H]1C[C@]2(C)[C@H](C#N)CC[C@H]2[C@@H]2CC[C@H]3C[C@H](O)[C@H](C)C[C@]3(C)[C@H]21 [Compound 46] | 100 to 500 | 10 to 100 |  | 
COCCO[C@H]1C[C@@]2(C)[C@@H](CC[C@H]3[C@@H]4CC[C@H](C#N)[C@@]4(C)CC(=O)[C@@H]32)C[C@@H]1O [Compound 17] | > 500 | 100 to 500 |  | 
CCCO[C@H]1C[C@@]2(C)[C@@H](CC[C@@H]3[C@@H]2[C@@H](O)C[C@]2(C)[C@@H](C#N)CC[C@@H]32)C[C@@H]1O [Compound 26] | 100 to 500 |  | B (“B” indicates the duration of LRR to be 10-20 minutes) | 
CO[C@@H]1C[C@@]2(C)[C@@H](CC[C@@H]3[C@@H]2CC[C@]2(C)[C@@H](C#N)CC[C@@H]32)C[C@@H]1O [Compound 44] | > 500 |  |  | 

Reference: patent US11046728B2, “Neuroactive steroids, compositions, and uses thereof” (Sage Therapeutics, Inc., priority 2013, dated 2021)
